From US12239654B2, “Compounds and methods for treating neurological and cardiovascular conditions” (Astrocyte Pharmaceuticals, Inc., priority 2016, dated 2025)
Where two headings read alike, the source gives them in different places.

Assays:
[1] = Pharmacokinetics of MRS4322 following intraperitoneal administration to mice (plasma and brain concentrations, LC-MS/MS); assay type: in vivo; details: female, mouse, plasma; for Tmax: MRS4322 0.16 mg/kg ip; for half-life: ip, MRS4322 […] ip
Experimental: Animals: Female C576BL/6J mice weighing approximately 0.02 kg were used for this study, supplied by the University of Texas Health Sciences Center (San Antonio, TX). All studies were conducted under approved University of Texas Health Sciences Center IACUC protocols.
Drug Administration: MRS4322 was solubilized in DMSO and then diluted in saline to prepare dosing solution. Final dosing solution concentration of MRS4322 was 100 μM. A 100 μL volume of dosing solution was administered intraperitoneally to each mouse per 20 gram body weight; MRS4322 was administered intraperitoneally at 0.16 mg/kg or 0.5 μmol/kg. Three mice were administered MRS4322 for each sampling timepoint.
Tissue Sampling: Blood and brain samples were obtained at 0, 0.083, 0.25, 0.5, 1, 2 and 8 hours post-dose. At each timepoint, mice (3/timepoint) were euthanized in a […] chamber. Whole blood was obtained by cardiac puncture into Microtainer tubes containing heparin and immediately centrifuged for preparation of plasma; plasma was stored at −80° C. At each timepoint, whole brain samples were obtained by decapitation, rinsed in ice-cold phosphate-buffered saline and weighed. Brain samples were then immediately flash-frozen in liquid nitrogen and stored at −80° C.
The following table outlines the LC and MS/MS conditions employed:
The calibration range for the MRS4322 plasma concentration standard curve was 2.42-242 ng/mL. The calibration range for MRS4322 brain concentrations was 2.41-233 ng/mL.
For bioanalysis of brain concentrations of MRS4322, brain samples were homogenized in ice-cold phosphate-buffered saline in a 4× dilution. Aliquots of the resulting diluted brain homogenate were treated with acetonitrile and analyzed by LC-MS/MS. Because of the 4× homogenate dilution, the calibration range of the MRS4322 brain standard curve was translated to 9.64-932 ng/gm. In several samples, MRS4322 was detectable but fell below the brain LLOQ of 9.64 ng/gm but were above background; in these cases the final reported brain concentration was extrapolated based on MS peak heights.

[2] = Plasma binding determination by plasma ultrafiltration, neonatal pig; assay type: in vitro ADME; details: female, 37° C., read-out: % Bound Mean (converted)
Experimental: Plasma ultrafiltrate blank samples were prepared by thawing frozen plasma and then pre-warming plasma in a humidified 5% CO2 chamber at 37 C for 60 minutes. Aliquots of 800 ul were transferred to Centrifree Centrifugal Filters (Ultracel regenerated cellulose (NMWL 30,000 amu) Lot R5JA31736) and centrifuged at 2900 RPM at 37 C for 10 minutes; plasma water filtrates were collected and used in preparation of standards, blanks and QC standards.
Plasma Binding Determination. […] Plasma samples were pre-warmed for 60 minutes in a humidified, 5% CO2 incubator maintained at 37° C. […] Spiked plasma samples were incubated on a rotary mixer in a humidified 5% CO2 chamber at 37° C. for a minimum of 60 minutes. After 60 minutes, three 800 ul aliquots of each sample were added to Centrifree centrifugal filters. The filters were subjected to centrifugation at 2900 rpm for 10 minutes at 37° C. Three 100 ul aliquots of residual plasma were collected along with ultrafiltrate for bioanalysis.
For each tissue matrix, standard curves were created and LLOQ/ULOQ concentrations determined.

[3] = target: T1, mouse A3 adenosine receptor (Mus musculus, UniProt Q61618); assay: cAMP accumulation at mouse A3 receptors expressed in CHO cells; assay type: cell-based
T1 construct: expressed in transfected cells; whole cells for cAMP
T1 sequence (Q61618 1-319): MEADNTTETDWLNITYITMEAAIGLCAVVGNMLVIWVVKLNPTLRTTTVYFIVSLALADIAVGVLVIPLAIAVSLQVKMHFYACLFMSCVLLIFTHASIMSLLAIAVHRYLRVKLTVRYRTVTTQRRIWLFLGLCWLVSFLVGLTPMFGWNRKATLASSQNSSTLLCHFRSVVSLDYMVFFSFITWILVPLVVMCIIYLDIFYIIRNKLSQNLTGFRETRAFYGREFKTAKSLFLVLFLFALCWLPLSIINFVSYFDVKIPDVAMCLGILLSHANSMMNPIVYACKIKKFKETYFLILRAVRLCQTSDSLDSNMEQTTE
Experimental: Additionally cAMP experiments were conducted at CHO cells recombinantly expressing human A3 or mouse A3 adenosine receptors, respectively.

[4] = In vitro stability of MRS2365 in mouse plasma; assay type: in vitro ADME
Experimental: (§1) Whole blood was obtained from male CD-1 mice and human volunteers at Seventh Wave Laboratories (Maryland Heights, MO). Plasma and blood samples were prepared using either EDTA (1 mM) or lithium heparin as anticoagulants.
(§2) Plasma Stability Determination: MRS2365, enalapril and procaine were solubilized in phosphate-buffered saline, pH 7.4. […] Stability incubations were initiated with the addition of MRS2365 (1 μM final concentration). Initial assessments of stability in EDTA-generated plasma utilized incubation timepoints of 0, 10, 30, 60, 120 and 240 minutes (FIGS. 3 and 4). Subsequent studies comparing EDTA- and heparin-generated plasma utilized incubation timepoints of 0, 1, 2.5, 5, 7.5, 10 and 30 minutes (FIG. 7). Additional plasma stability incubations comparing EDTA- and heparin-generated plasma were performed using timepoints of 0, 5, 10, 20, 30, 45, 60 and 90 seconds (FIG. 8). For metabolite scouting analyses, MRS2365 was incubated in heparinized human plasma at a concentration of 100 μM for 10 or 30 minutes (FIG. 9). In all studies, plasma was immediately placed in microtainer tubes, frozen on dry ice and stored at −80° C. until analysis.
(§3) The following table outlines the LC and MS/MS conditions employed (Table 11).
(§4) The calibration range for MRS2365 plasma and blood concentration standard curves was 5-5000 ng/mL. […]

[5] = In vitro stability of MRS2365 in human plasma; assay type: in vitro ADME
Experimental: as §1, §2, §3, §4

[6] = In vitro stability of MRS2365 in mouse whole blood; assay type: in vitro ADME; details: male, CD-1, EDTA-treated mouse whole blood
Experimental: as §1
(§5) Blood Stability Determination: MRS2365, enalapril and procaine were solubilized in phosphate-buffered saline, pH 7.4. […] Stability incubations were initiated with the addition of MRS2365 (1 μM final concentration) (FIGS. 5 and 6). Blood sample aliquots were obtained at 0, 1, 2.5, 7.5, 10 and 30 minutes and placed in microtainer tubes. For metabolite scouting analyses, MRS2365 was incubated in heparinized human whole blood at a concentration of 100 μM for 10 or 30 minutes (FIG. 10). In all studies, plasma was immediately prepared by centrifugation at 4° C., placed in microtainer tubes, frozen on dry ice and stored at −80° C. until analysis.
as §3
(§6) The calibration range for MRS2365 plasma and blood concentration standard curves was 5-5000 ng/mL. Quality control samples were utilized at concentrations of 32, 160, 800 and 4000 ng/mL.

[7] = In vitro stability of MRS2365 in human whole blood; assay type: in vitro ADME; details: EDTA-treated human whole blood, read-out: estimated half-life
Experimental: as §1, §5, §3, §6

Compound | Tmax ([1]; C57BL/6J, mean, read-out: Tmax Mean) [min] | half-life ([1]; C57BL/6J, mean, read-out: Half-life Mean (converted)) [min] | Tmax ([1]; C576BL/6J, animals A-C, read-out: Tmax) [min] | half-life ([1]; C576BL/6J, animals A-C, read-out: Half-life (converted)) [min] | fraction unbound at 60 min, 1 uM [2] | EC50 ([3]; CHO cells stably expressing mouse A3R, read-out: EC50 ± SEM, Mouse A3R, cAMP accumulation) [nM] | Emax at 100 µM ([3]; read-out: efficacy at 100 μM concentration in % relative to maximal effect of NECA, Mouse A3R, 100 μM, cAMP accumulation, CHO cells) [%] | MRS2365 concentrations in heparin-treated plasma ([4]; heparin-treated mouse plasma, 0-90 seconds, even at 0 and 5 seconds) | half-life at 1 μM ([4]; male, CD-1, EDTA-prepared mouse plasma, 1 μM, incubation out to 240 minutes) [min] | half-life at 1 μM ([5]; EDTA-prepared human plasma, 1 μM, incubation out to 240 minutes) [min] | MRS2365 concentrations in heparin-treated plasma ([5]; heparin-treated human plasma, 0-90 seconds, even at 0 and 5 seconds) | half-life at 1 μM [6] [min] | half-life at 1 μM [7] [min]
CSc1nc(N)c2ncn([C@H]3[C@H](O)[C@H](O)[C@]4(CO)C[C@H]34)c2n1 [MRS4322] | 4.98 | 18.6 | 4.98 | 18.4 | 0.784 | 759 ± 170 | 72 |  |  |  |  |  | 
CSc1nc(N)c2ncn([C@H]3[C@H](O)[C@H](O)[C@]4(COP(=O)(O)OP(=O)(O)O)C[C@H]34)c2n1 [MRS2365] |  |  |  |  |  |  |  | extremely low | > 240 | > 240 | extremely low | 47 | > 240
